Source: patent publication US20250223306A1, “TEAD INHIBITORS AND METHODS OF USE” (Sporos BioDiscovery, Inc., priority 2022, published 2025)

Experiments:
Mero82 cells = test: Mero82 proliferation and cell viability assay (CTG); assay type: cell-based; settings: Mero82 cell line, 144 hours
Method: Mero 82 cells were trypsinised, counted and plated at 400 cells/well in 200 μl of growth media in 96 well flat bottom tissue culture treated plates. The plated cells were incubated overnight at 37° C., 5% CO2 before being treated with compounds in triplicate for each assay point. 50 μl of the serially diluted compound was added to each well giving a final DMSO concentration of 0.5% per well and a total volume of 250 μl per well. The treated cells were incubated for 144 hours (6 days) at 37° C., 5% CO2. Following compound treatment, the remaining viable cells were detected using the Promega CellTiter-Glo 2.0 assay as follows: 150 μl of media was removed from each of the wells to be assayed and 100 μl of room temperature CellTiter-Glo 2.0 reagent was added. The plate was placed on an orbital shaker at 500 rpm at room temperature for 2 minutes, and then incubated without shaking for a further 10 minutes at room temperature. 150 μl of cell lysate was removed from each well and dispensed into a single well of a white opaque 96 well plate. Luminescence at 545 nm was read using a BMG CLARIOstar plate reader. The luminescent signal was directly proportional to number of viable cells, the percent of viable cells relative to the DMSO control was then calculated for each assay point. Percent viability relative to DMSO control is plotted against compound concentration and a curve fitted with non-linear regression in GraphPad Prism software. IC50 values were calculated using GraphPad Prism software as follows: For Relative IC50 values a non-constrained four-parameter logistic curve fit was used (Sigmoidal, 4PL, X is concentration). For Absolute IC50 values the baseline was constrained to Y=0 (Absolute IC50, X is concentration). Area Under the Curve (AUC): Prism computes area-under-the-curve by the trapezoidal method. The analysis sees a fitted curve as simply a series of connected XY points. Prism simply computes the area under the “curve” defined by connecting the points by straight lines. The units of the AUC are the units of the Y axis times units of the X axis.

Mero14 cells = test: Mero14 proliferation and cell viability assay (CTG); assay type: cell-based; settings: Mero14 cell line, 144 hours
Method: Mero14 cells were trypsinised, counted and plated at 400 cells/well in 200 μl of growth media in 96 well flat bottom tissue culture treated plates. The plated cells were incubated overnight at 37° C., 5% CO2 before being treated with compounds in triplicate for each assay point. 50 μl of the serially diluted compound was added to each well giving a final DMSO concentration of 0.5% per well and a total volume of 250 μl per well. The treated cells were incubated for 144 hours (6 days) at 37° C., 5% CO2. Following compound treatment the remaining viable cells were detected using the Promega CellTiter-Glo 2.0 assay as follows: 150 μl of media was removed from each of the wells to be assayed and 100 μl of room temperature CellTiter-Glo 2.0 reagent was added. The plate was placed on an orbital shaker at 500 rpm at room temperature for 2 minutes, and then incubated without shaking for a further 10 minutes at room temperature. 150 μl of cell lysate was removed from each well and dispensed into a single well of a white opaque 96 well plate.
Luminescence at 545 nm was read using a BMG CLARIOstar plate reader. The luminescent signal was directly proportional to number of viable cells, the percent of viable cells relative to the DMSO control was then calculated for each assay point. Percent viability relative to DMSO control is plotted against compound concentration and a curve fitted with non-linear regression in GraphPad Prism software. IC50 values were calculated using GraphPad Prism software as follows: For Relative IC50 values, a non-constrained four-parameter logistic curve fit was used (Sigmoidal, 4PL, X is concentration). For Absolute IC50 values the baseline was constrained to Y=0 (Absolute IC50, X is concentration). Area Under the Curve (AUC): Prism computed area-under-the-curve by the trapezoidal method. The analysis sees a fitted curve as simply a series of connected XY points. Prism simply computes the area under the “curve” defined by connecting the points by straight lines. The units of the AUC are the units of the Y axis times units of the X axis.

TEAD2 = TEAD2 (Homo sapiens, UniProt Q15562); test: TEAD thermal shift assay (TSA); assay type: binding
Sequence of TEAD2 (Q15562 whole entry): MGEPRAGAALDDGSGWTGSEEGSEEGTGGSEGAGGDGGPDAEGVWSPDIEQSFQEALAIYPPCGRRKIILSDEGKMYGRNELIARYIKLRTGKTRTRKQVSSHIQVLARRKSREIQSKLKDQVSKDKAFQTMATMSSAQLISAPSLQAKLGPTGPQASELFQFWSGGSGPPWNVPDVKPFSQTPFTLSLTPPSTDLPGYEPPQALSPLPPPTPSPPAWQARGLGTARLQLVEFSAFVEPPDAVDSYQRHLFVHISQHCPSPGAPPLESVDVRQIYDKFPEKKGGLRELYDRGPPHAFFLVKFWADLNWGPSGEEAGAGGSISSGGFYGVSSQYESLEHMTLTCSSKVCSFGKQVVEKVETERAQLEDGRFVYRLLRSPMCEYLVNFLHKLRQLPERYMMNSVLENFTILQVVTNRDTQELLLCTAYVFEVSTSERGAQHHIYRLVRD
Source text: (§1) Thermal shift assay (TSA) is a biophysical method to evaluate stability of proteins with change in temperature. The assay measures thermal denaturation temperature in varying conditions such as different drug concentration. For this example, fluorogenic dye was used that bind to unfolded proteins. SYPRO Orange binds non-specifically to hydrophobic surfaces, and water strongly quenches its fluorescence. When the protein unfolds, the exposed hydrophobic surfaces bind the dye, resulting in an increase in fluorescence by excluding water. Detergent micelles also bind the dye and increase background noise dramatically. Binding of small molecules to proteins leads to a stabilization against to thermal denaturation with the degree of thermal stabilization proportional to the strength of binding.
(§2) The study described in this example investigated the change in melting temperature (ΔTm) of TEAD isoforms 1˜4 when treated with TEAD inhibitors. Compound 1-1-a known strong TEAD1 and weak TEAD2 inhibitor; as well as Compound 1-4-a pan-TEAD inhibitor were used as controls.
(§3) Tris-HCL was dissolved in 5 mL of Cell culture grade water and allowed to dissolve completely. The pH was adjusted to 8 using NaOH. Additional assay buffer components were added in the order listed above. The buffer was mixed slowly.
(§4) Assay buffer was prepared according to the procedures outlined above and dispensed into test wells. Spyro orange was added to a concentration of 5× in the assay buffer, followed by test compound stock solution which was added to a concentration of 10 μM or 30 μM in the assay buffer.
(§5) The melt cycle was performed in Bio-RAD PCR instrument from 20-95° C. with ramp rate of 1° C./min.

TEAD3 = TEAD3 (Homo sapiens, UniProt Q99594); test: TEAD thermal shift assay (TSA); assay type: binding
Sequence of TEAD3 (Q99594 whole entry): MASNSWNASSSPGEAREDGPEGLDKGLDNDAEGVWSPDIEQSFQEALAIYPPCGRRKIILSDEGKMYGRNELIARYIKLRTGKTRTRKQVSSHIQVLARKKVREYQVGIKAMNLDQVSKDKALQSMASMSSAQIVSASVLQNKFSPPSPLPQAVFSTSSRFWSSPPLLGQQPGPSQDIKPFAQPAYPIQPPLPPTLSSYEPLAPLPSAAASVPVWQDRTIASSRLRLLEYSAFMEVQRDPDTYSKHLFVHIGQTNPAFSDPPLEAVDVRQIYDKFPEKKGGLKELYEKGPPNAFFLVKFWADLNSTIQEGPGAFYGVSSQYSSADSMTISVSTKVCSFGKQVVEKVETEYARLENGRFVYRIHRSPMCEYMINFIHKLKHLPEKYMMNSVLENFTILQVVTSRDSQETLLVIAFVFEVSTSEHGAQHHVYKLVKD
Source text: as §1, §2, §3, §4, §5

TEAD4 = TEAD4 (Homo sapiens, UniProt Q15561); test: TEAD thermal shift assay (TSA); assay type: binding
Sequence of TEAD4 (Q15561 whole entry): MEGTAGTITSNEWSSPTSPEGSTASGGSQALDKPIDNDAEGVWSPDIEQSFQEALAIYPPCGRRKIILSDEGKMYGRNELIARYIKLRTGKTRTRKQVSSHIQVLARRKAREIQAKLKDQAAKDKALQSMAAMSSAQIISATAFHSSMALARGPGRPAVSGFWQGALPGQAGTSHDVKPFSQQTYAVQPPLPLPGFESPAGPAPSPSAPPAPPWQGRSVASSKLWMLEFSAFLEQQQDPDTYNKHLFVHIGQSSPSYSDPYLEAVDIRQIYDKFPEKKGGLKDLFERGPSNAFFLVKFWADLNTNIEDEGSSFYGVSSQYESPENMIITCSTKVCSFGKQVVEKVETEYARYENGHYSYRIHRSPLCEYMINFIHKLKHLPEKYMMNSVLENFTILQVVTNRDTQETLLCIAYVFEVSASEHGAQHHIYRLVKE
Source text: as §1, §2, §3, §4, §5

TEAD1 = TEAD1 (Homo sapiens, UniProt P28347); test: TEAD thermal shift assay (TSA); assay type: binding
Sequence of TEAD1 (P28347 whole entry): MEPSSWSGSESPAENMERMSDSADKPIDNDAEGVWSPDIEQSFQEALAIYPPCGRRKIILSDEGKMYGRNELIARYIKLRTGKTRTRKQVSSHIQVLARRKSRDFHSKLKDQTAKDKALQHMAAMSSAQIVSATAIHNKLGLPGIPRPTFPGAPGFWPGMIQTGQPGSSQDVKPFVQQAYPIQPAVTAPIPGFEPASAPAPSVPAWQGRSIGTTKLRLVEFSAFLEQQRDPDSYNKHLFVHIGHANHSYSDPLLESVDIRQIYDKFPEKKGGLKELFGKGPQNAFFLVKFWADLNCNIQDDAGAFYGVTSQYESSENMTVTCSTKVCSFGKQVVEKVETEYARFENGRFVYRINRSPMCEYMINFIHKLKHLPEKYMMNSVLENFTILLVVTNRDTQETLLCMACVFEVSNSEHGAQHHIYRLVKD
Source text: as §1, §2, §3, §4, §5

[1] = ratio of protein to compound 1:1
[2] = ratio of protein to compound 1:3

| SMILES | EC50 (Mero82 cells) [nM] | EC50 (Mero14 cells) [nM] | TEAD2 ΔTm (TEAD2; [1]) [°C] | TEAD2 ΔTm (TEAD2; [2]) [°C] | TEAD3 ΔTm (TEAD3; [1]) [°C] | TEAD3 ΔTm (TEAD3; [2]) [°C] | TEAD4 ΔTm (TEAD4; [1]) [°C] | TEAD4 ΔTm (TEAD4; [2]) [°C] | TEAD1 ΔTm (TEAD1; [1]) [°C] | TEAD1 ΔTm (TEAD1; [2]) [°C] |
| --- | --- | --- | --- | --- | --- | --- | --- | --- | --- | --- |
| C[C@H](CO)NC(=O)c1cnc2c(C3=CCC(C(F)(F)F)CC3)cccc2c1 (stereo partly drawn) [Compound 7, N—((R)-1-hydroxypropan-2-yl)-8-(4-(trifluoromethyl)cyclohex-1-en-1-yl)quinoline-3-carboxamide] | < 200 | < 200 | 2 | 3 | 2 | 2 | 1.5 | 3 | 9 | 11 |
| COc1cc(C2=CCC(C(F)(F)F)CC2)c2ncc(C(=O)N[C@H](C)CO)cc2c1 (stereo partly drawn) [Compound 110, N—((R)-1-hydroxypropan-2-yl)-6-methoxy-8-(4-(trifluoromethyl)cyclohex-1-en-1-yl)quinoline-3-carboxamide] | < 200 | < 200 | 2 | 3 | 2 | 3 | 2 | 3 | 14 | 16 |
| C[C@H](NC(=O)c1cnc2c(C3=CC[C@@H](C(F)(F)F)CC3)cccc2c1)c1ncco1 (single isomer, unassigned) [Compound 20, N-(1-(oxazol-2-yl)ethyl)-8-(4-(trifluoromethyl)cyclohex-1-en-1-yl)quinoline-3-carboxamide] |  |  | 1 | 3 | 2 | 4.5 | 1.5 | 3 | 10 | 13 |
| C[C@@H](NC(=O)c1cnc2c(C3=CCC4(CC3)CC4)cccc2c1)c1ncco1 [Compound 166, (R)—N-(1-(oxazol-2-yl)ethyl)-8-(spiro[2.5]oct-5-en-6-yl)quinoline-3-carboxamide] | < 200 | < 200 |  |  |  |  |  |  |  |  |
| C=CC(=O)Nc1ccc(C)c(Oc2ccc(Cl)cc2)c1 [Compound 1-3, reference compound] | < 200 | < 200 |  |  |  |  |  |  |  |  |
| O=C(NCc1ccn[nH]1)c1cnc2c(C3=CCC(C(F)(F)F)CC3)cccc2c1 (stereo not shown) [Compound 47, N-((1H-pyrazol-5-yl)methyl)-8-(4-(trifluoromethyl)cyclohex-1-en-1-yl)quinoline-3-carboxamide] | < 200 | < 200 | 2 | 2 | 2 | 3 | 3 | 3 | 9 | 11 |
| O=C(NCc1ncco1)c1cnc2c(C3=CCC(C(F)(F)F)CC3)cccc2c1 (stereo not shown) [Compound 11, N-(oxazol-2-ylmethyl)-8-(4-(trifluoromethyl)cyclohex-1-en-1-yl)quinoline-3-carboxamide] | < 200 | < 200 | 3 | 3 | 3.5 | 3 | 1.5 | 2.5 | 11 | 11.5 |
| C[C@H](NC(=O)c1cnc2c(C3=CC[C@@H](C(F)(F)F)CC3)cccc2c1)c1ncco1 (single isomer, unassigned) [Compound 19, N-(1-(oxazol-2-yl)ethyl)-8-(4-(trifluoromethyl)cyclohex-1-en-1-yl)quinoline-3-carboxamide] | < 200 | < 200 | 2 | 3 | 2 | 4 | 2 | 3 | 12 | 12 |
| COC[C@H](CO)NC(=O)c1cnc2c(C3=CCC(C(F)(F)F)CC3)cccc2c1 (stereo partly drawn) [Compound 62, N—((S)-1-hydroxy-3-methoxypropan-2-yl)-8-(4-(trifluoromethyl)cyclohex-1-en-1-yl)quinoline-3-carboxamide] | < 200 | < 200 | 3 | 3 | 1 | 2 | 2 | 3 | 9 | 11 |
| FC(F)(F)c1ccc(CN2CCC(C3CC(Br)=NO3)CC2)cc1 (stereo not shown) [Compound 1-2, reference compound] | > 1000 | 200 to 1000 |  |  |  |  |  |  |  |  |
| C[C@H](CO)NC(=O)c1cnc2c(C3=CCC4(CC3)CC(F)(F)C4)cccc2c1 [Compound 165, (R)-8-(2,2-difluorospiro[3.5]non-6-en-7-yl)-N-(1-hydroxypropan-2-yl)quinoline-3-carboxamide] | < 200 | < 200 |  |  |  |  |  |  |  |  |
| C[C@H](NC(=O)c1cnc2c(C3=CCC(C(F)(F)F)CC3)cccc2c1)c1ccccn1 (stereo partly drawn) [Compound 2, N—((S)-1-(pyridin-2-yl)ethyl)-8-(4-(trifluoromethyl)cyclohex-1-en-1-yl)quinoline-3-carboxamide] |  |  | 1 | 1.5 | 2 | 3 | 2 | 4 | 10 | 12 |
| COc1cc(C2=CCC(C(F)(F)F)CC2)c2ncc(C(=O)N[C@H](C)c3ncco3)cc2c1 (stereo partly drawn) [Compound 109, 6-methoxy-N—((R)-1-(oxazol-2-yl)ethyl)-8-(4-(trifluoromethyl)cyclohex-1-en-1-yl)quinoline-3-carboxamide] | < 200 | < 200 | 3 | 2 | 2 | 3 | 1 | 2 | 13 | 14 |
